Results: US20240109868A1, “EP300/CBP MODULATOR, PREPARATION METHOD THEREFOR AND USE THEREOF” (Miracure Biotechnology Limited, priority 2022, published 2024)

What was measured:
22Rv1 Cell = experiment: 22RV1 cell growth inhibition, CellTiter-Glo, 72 h; type: cell-based; settings: 22RV1 cells, 72 h culture
Procedure, shortened: (§1)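 Cells seeded at 5×10^3/well overnight in RPMI-1640/10% FBS, then exposed to compound (0.5% DMSO final) for 72 h at 37 °C.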

vCap Cell = experiment: vCap cell growth inhibition, CellTiter-Glo, 72 h; type: cell-based; settings: vCap cells, 72 h culture
Procedure, shortened: as §1

CBP bromodomain = biological target: T1, CBP bromodomain (Homo sapiens, UniProt Q92793); experiment: CBP AlphaLISA assay kit (CBP bromodomain binding to acetylated histone substrate); settings: read-out: CBP ALPHA IC50
T1 construct: purchased
Procedure: The biochemical activity of the CBP inhibitors was determined using the CBP AlphaLISA® assay kit. The assay is based on the binding of the CBP bromodomain to the acetylated histone substrate. The compounds were incubated with CBP and the biotinylated substrate for 30 min. Then acceptor beads were added, followed by 15 min of incubation, and donor beads were added, followed by 15 min of incubation. Then the alpha counts were read, the data were analyzed using Prism 7.0, and the IC50 values were calculated. The values are shown as mean f SEM (N=2).

T1 sequence (Q92793 1085-1192 limits assumed): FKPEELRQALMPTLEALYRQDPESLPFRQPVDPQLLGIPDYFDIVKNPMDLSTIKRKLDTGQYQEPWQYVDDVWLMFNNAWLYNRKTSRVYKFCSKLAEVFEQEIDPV

Row | SMILES | IC50 (22Rv1 Cell; Homo sapiens, 22Rv1, 72 h) | IC50 (vCap Cell; Homo sapiens, VCaP, 72 h) | IC50 (CBP bromodomain) | IC50 (22Rv1 Cell) | IC50 (vCap Cell)
1 | CC(=O)N1Cc2cc(C3CCN(CC(C)O)C(=O)C3)cc(N3CCCc4cc(-c5cnn(C)c5)c(C(F)F)cc43)c2C1 (stereo not drawn) [Compound M001249] | – | – | – | < 1000 nM | < 1000 nM
2 | CON1CCC(c2cc3c(c(N4CCCc5cc(-c6cnn(C)c6)c(C(F)F)cc54)c2)CN(C(C)=O)C3)CC1 [Compound M001269] | > 1000 nM | > 1000 nM | – | – | –
3 | COC(=O)N1CCc2cc(C3CCC(=O)N(CC(C)(C)O)C3)cc(N3CCCc4cc(-c5cnn(C)c5)c(C(F)F)cc43)c2C1 (stereo not drawn) [Compound M001272] | > 1000 nM | > 1000 nM | – | – | –
4 | CON1CCC(c2cc3c(c(N4CCCc5cc(-c6cnn(C)c6)c(C(F)F)cc54)c2)CN(C(=O)OC(C)(C)C)CC3)CC1 [Compound M001274, tert-butyl 8-[7-(difluoromethyl)-6-(1-methylpyrazol-4-yl)-3,4-dihydro-2H-quinolin-1-yl]-6-(1-methoxypiperidin-4-yl)-3,4-dihydro-1H-isoquinoline-2-carboxylate] | > 1000 nM | > 1000 nM | – | – | –
5 | CON1CCC(c2cc3c(c(N4CCCc5cc(-c6cnn(C)c6)c(C(F)F)cc54)c2)CN(C(=O)OC(C)(C)C)C3)CC1 [Compound M001275] | > 1000 nM | > 1000 nM | – | – | –
6 | CC(=O)N1Cc2cc(C3CCN(C4CCC(=O)NC4=O)C(=O)C3)cc(N3CCCc4cc(-c5cnn(C)c5)c(C(F)F)cc43)c2C1 (stereo not drawn) [Compound M001288] | > 1000 nM | > 1000 nM | – | – | –
7 | CC(=O)N1Cc2cc(C3CCC(N)CC3)cc(N3CCCc4cc(-c5cnn(C)c5)c(C(F)F)cc43)c2C1 (stereo not drawn) [Compound M001301, 1-(6-(4-aminocyclohexyl)-4-(7-(difluoromethyl)-6-(1-methyl-1H-pyrazol-4-yl)-3,4-dihydroquinolin-1(2H)-yl)isoindolin-2-yl)ethan-1-one] | > 1000 nM | > 1000 nM | – | – | –
8 | CNC(=O)N1CCc2cc([C@H]3CC[C@@H](NS(C)(=O)=O)CC3)cc(N3CCCc4cc(-c5cnn(C)c5)c(C(F)F)cc43)c2C1 [Compound M001313] | > 1000 nM | < 1000 nM | – | – | –
9 | CSC1CCC(c2cc3c(c(N4CCCc5cc(-c6cnn(C)c6)c(C(F)F)cc54)c2)CN(C(C)=O)C3)CC1 (stereo not drawn) [Compound M001315] | > 1000 nM | < 1000 nM | – | – | –
10 | CC(=O)N1Cc2cc(C3CCC(N)CC3)cc(N3CCCc4cc(-c5cnn(C)c5)c(C(F)F)cc43)c2C1 (stereo not drawn) [Compound M001320] | – | – | – | > 1000 nM | > 1000 nM
11 | CC(=O)N1Cc2cc([C@H]3CC[C@@H](N)CC3)cc(N3CCCc4cc(-c5cnn(C)c5)c(C(F)F)cc43)c2C1 [Compound M001321] | > 1000 nM | > 1000 nM | – | – | –
12 | CS[C@H]1CC[C@@H](c2cc3c(c(N4CCCc5cc(-c6cnn(C)c6)c(C(F)F)cc54)c2)CN(C(C)=O)C3)CC1 [Compound M001322] | > 1000 nM | > 1000 nM | – | – | –
13 | CC(=O)N1Cc2cc(C3CCC([S+](C)[O-])CC3)cc(N3CCCc4cc(-c5cnn(C)c5)c(C(F)F)cc43)c2C1 (stereo not drawn) [Compound M001323] | > 1000 nM | < 1000 nM | – | – | –
14 | CSC1CCC(c2cc3c(c(N4CCCc5cc(-c6cnn(C)c6)c(C(F)F)cc54)c2)CN(C(C)=O)C3)CC1 (stereo not drawn) [Compound M001324] | – | – | – | > 1000 nM | < 1000 nM
15 | CC(=O)N1Cc2cc(C3CCC(S(C)(=N)=O)CC3)cc(N3CCCc4cc(-c5cnn(C)c5)c(C(F)F)cc43)c2C1 (stereo not drawn) [Compound M001327] | – | – | – | > 1000 nM | > 1000 nM
16 | CC(=O)N1Cc2cc(C3CCC([S@@](C)(=N)=O)CC3)cc(N3CCCc4cc(-c5cnn(C)c5)c(C(F)F)cc43)c2C1 (stereo partly drawn) [Compound M001328] | > 1000 nM | > 1000 nM | – | – | –
17 | CC(=O)N1Cc2cc(C3CCC([S@@](C)(=N)=O)CC3)cc(N3CCCc4cc(-c5cnn(C)c5)c(C(F)F)cc43)c2C1 (stereo partly drawn) [Compound M001329] | – | – | – | > 1000 nM | > 1000 nM
18 | CON[C@H]1CC[C@@H](c2cc3c(c(N4CCCc5cc(-c6cnn(C)c6)c(C(F)F)cc54)c2)CN(C(C)=O)C3)CC1 [Compound M001340] | > 1000 nM | > 1000 nM | – | – | –
19 | CON[C@H]1CC[C@H](c2cc3c(c(N4CCCc5cc(-c6cnn(C)c6)c(C(F)F)cc54)c2)CN(C(C)=O)C3)CC1 [Compound M001341] | > 1000 nM | > 1000 nM | – | – | –

Further lines, results first:

Row | IC50 (22Rv1 Cell; Homo sapiens, 22Rv1, 72 h) | IC50 (vCap Cell; Homo sapiens, VCaP, 72 h) | IC50 (CBP bromodomain) | IC50 (22Rv1 Cell) | IC50 (vCap Cell) | SMILES
20 | < 1000 nM | < 1000 nM | < 10 nM | – | – | COC1CCC(c2cc3c(c(N4CCCc5cc(-c6cnn(C)c6)c(C(F)F)cc54)c2)CN(C(C)=O)C3)CC1 (stereo not drawn) [Compound M001065]
21 | > 1000 nM | < 1000 nM | < 10 nM | – | – | CNC(=O)N1CCc2cc(C3CCN(C(=O)c4ccccc4)CC3)cc(N3CCCc4cc(-c5cnn(C)c5)c(C(F)F)cc43)c2C1 [Compound M001076]
22 | < 1000 nM | < 1000 nM | > 10 nM | – | – | CC(=O)N1Cc2cc(C3CCNC(=O)C3)cc(N3CCCc4cc(-c5cnn(C)c5)c(C(F)F)cc43)c2C1 (stereo not drawn) [Compound M001126]
23 | < 1000 nM | < 1000 nM | < 10 nM | – | – | CC(=O)N1Cc2cc(C3CCC(=O)N(C)C3)cc(N3CCCc4cc(-c5cnn(C)c5)c(C(F)F)cc43)c2C1 (stereo not drawn) [Compound M001173]
24 | > 1000 nM | < 1000 nM | < 10 nM | – | – | CC(=O)N1Cc2cc(C3CCC(=O)NC3)cc(N3CCCc4cc(-c5cnn(C)c5)c(C(F)F)cc43)c2C1 (stereo not drawn) [Compound M001174]
25 | < 1000 nM | < 1000 nM | < 10 nM | – | – | CC(=O)N1Cc2cc(C3CCN(CC(C)O)C(=O)C3)cc(N3CCCc4cc(-c5cnn(C)c5)c(C(F)F)cc43)c2C1 (stereo not drawn) [Compound M001190]
26 | < 1000 nM | < 1000 nM | – | – | – | CNC(=O)N1CCc2cc(-c3ccc(=O)n(C)c3)cc(Nc3cc(C(F)F)c(-c4cnn(C)c4)cc3F)c2C1 [Compound M001239, 8-((5-(difluoromethyl)-2-fluoro-4-(1-methyl-1H-pyrazol-4-yl)phenyl)amino)-N-methyl-6-(1-methyl-6-oxo-1,6-dihydropyridin-3-yl)-3,4-dihydroisoquinoline-2(1H)-carboxamide]
27 | > 1000 nM | > 1000 nM | – | – | – | CNC(=O)N1Cc2nc(C3CCOCC3)nc(N3CCCc4cc(-c5cnn(C)c5)c(C(F)F)cc43)c2C1 [Compound M001244]
28 | > 1000 nM | > 1000 nM | – | – | – | CC(=O)N1Cc2cc(C3CNC(=O)OC3)cc(N3CCCc4cc(-c5cnn(C)c5)c(C(F)F)cc43)c2C1 (stereo not drawn) [Compound M001246]
29 | < 1000 nM | < 1000 nM | – | – | – | CC(=O)N1Cc2cc(C3CCN(CC(F)(F)F)C(=O)C3)cc(N3CCCc4cc(-c5cnn(C)c5)c(C(F)F)cc43)c2C1 (stereo not drawn) [Compound M001252]
30 | < 1000 nM | < 1000 nM | – | – | – | CNC(=O)N1CCc2cc(C3CCN(CC(F)(F)F)C(=O)C3)cc(N3CCCc4cc(-c5cnn(C)c5)c(C(F)F)cc43)c2C1 (stereo not drawn) [Compound M001253]
31 | > 1000 nM | > 1000 nM | – | – | – | CCN1CCC(c2cc3c(c(N4CCCc5cc(-c6cnn(C)c6)c(C(F)F)cc54)c2)CN(C(=O)OC)CCC3)CC1=O (stereo not drawn) [Compound M001260, methyl 9-(7-(difluoromethyl)-6-(1-methyl-1H-pyrazol-4-yl)-3,4-dihydroquinolin-1(2H)-yl)-7-(1-ethyl-2-oxopiperidin-4-yl)-1,3,4,5-tetrahydro-2H-benzo[c]azepine-2-carboxylate]
32 | > 1000 nM | > 1000 nM | – | – | – | CCN1CCC(c2cc3c(c(N4CCCc5cc(-c6cnn(C)c6)c(C(F)F)cc54)c2)CN(C(N)=O)CCC3)CC1=O (stereo not drawn) [Compound M001261]
33 | > 1000 nM | > 1000 nM | – | – | – | CCN1CCC(c2cc3c(c(N4CCCc5cc(-c6cnn(C)c6)c(C(F)F)cc54)c2)CN(C(=O)NC)CCC3)CC1=O (stereo not drawn) [Compound M001263]
34 | > 1000 nM | > 1000 nM | – | – | – | CCN1CCC(c2cc3c(c(N4CCCc5cc(-c6cnn(C)c6)c(C(F)F)cc54)c2)CN(C(C)=O)CCC3)CC1=O (stereo not drawn) [Compound M001264]
35 | > 1000 nM | < 1000 nM | – | – | – | CNC(=O)N1CCc2cc(C3CCN(OC)CC3)cc(N3CCCc4cc(-c5cnn(C)c5)c(C(F)F)cc43)c2C1 [Compound M001268]
36 | < 1000 nM | > 1000 nM | – | – | – | CNC(=O)N1CCc2cc(C3CCN(CC(C)(C)O)C(=O)C3)cc(N3CCCc4cc(-c5cnn(C)c5)c(C(F)F)cc43)c2C1 (stereo not drawn) [Compound M001280]
37 | < 1000 nM | < 1000 nM | – | – | – | CC(=O)N1Cc2cc(C3CCN(S(C)(=O)=O)CC3)cc(N3CCCc4cc(-c5cnn(C)c5)c(C(F)F)cc43)c2C1 [Compound M001296]
38 | < 1000 nM | < 1000 nM | – | – | – | CC(=O)N1Cc2cc(C3CCC(S(C)(=N)=O)CC3)cc(N3CCCc4cc(-c5cnn(C)c5)c(C(F)F)cc43)c2C1 (stereo not drawn) [Compound M001297, (4-(2-acetyl-7-(7-(difluoromethyl)-6-(1-methyl-1H-pyrazol-4-yl)-3,4-dihydroquinolin-1(2H)-yl)isoindol-5-yl)cyclohexyl)(imino)(methyl)-16-sulfanone]
39 | < 1000 nM | < 1000 nM | – | – | – | CC(=O)N1Cc2cc(C3CCN(S(=O)(=O)C4CC4)CC3)cc(N3CCCc4cc(-c5cnn(C)c5)c(C(F)F)cc43)c2C1 [Compound M001298]
40 | < 1000 nM | < 1000 nM | – | – | – | CC(=O)N1Cc2cc([C@H]3CC[C@@H](S(C)(=O)=O)CC3)cc(N3CCCc4cc(-c5cnn(C)c5)c(C(F)F)cc43)c2C1 [Compound M001299]
41 | < 1000 nM | < 1000 nM | – | – | – | CC(=O)N[C@H]1CC[C@H](c2cc3c(c(N4CCCc5cc(-c6cnn(C)c6)c(C(F)F)cc54)c2)CN(C(C)=O)C3)CC1 [Compound M001304]
42 | < 1000 nM | < 1000 nM | – | – | – | CNC(=O)N1CCc2cc(C3CCN(S(=O)(=O)C4CC4)CC3)cc(N3CCCc4cc(-c5cnn(C)c5)c(C(F)F)cc43)c2C1 [Compound M001307]
